≈ marks a conversion by molar mass, not a printed value.
Assays:
[1] = tested on: Mycobacterium tuberculosis H37Rv; assay: MIC, microplate Alamar Blue assay; format: cell-based
Excerpt: MICs for Mycobacterium tuberculosis were quantified using microplate Alamar Blue assays as described [Collins, L. & Franzblau, S. (1997) Microplate Alamar Blue assay versus BACTEC 460 system for high-throughput screening of compounds against Mycobacterium tuberculosis and Mycobacterium avium. Antimicrob. Agents Chemother. 41, 1004-1009].

[2] = target: E. coli RNA polymerase σ70 holoenzyme (Escherichia coli, UniProt P0A8T7+P0A8V2); assay: Fluorescence-detected RNA polymerase assay, E. coli RNA polymerase; format: biochemical; conditions: RiboGreen fluorescence, read-out: IC50 E. coli RNAP
Method: Fluorescence-detected RNA polymerase assays with E. coli RNA polymerase were performed by a modification of the procedure of Kuhlman et al., 2004 [Kuhlman, P., Duff, H. & Galant, A. (2004) A fluorescence-based assay for multisubunit DNA-dependent RNA polymerases. Anal. Biochem. 324, 183-190]. Reaction mixtures contained (20 μl): 0-100 nM test compound, 75 nM E. coli RNA polymerase σ^70 holoenzyme, 20 nM 384 bp DNA fragment containing the bacteriophage T4 N25 promoter, 100 μM ATP, 100 μM GTP, 100 μM UTP, 100 μM CTP, 50 mM Tris-HCl, pH 8.0, 100 mM KCl, 10 mM MgCl2, 1 mM DTT, 10 μg/ml bovine serum albumin, and 5.5% glycerol. Reaction components other than DNA and NTPs were pre-incubated for 10 min at 37° C. Reactions were carried out by addition of DNA and incubation for 5 min at 37° C., followed by addition of NTPs and incubation for 60 min at 37° C. DNA was removed by addition of 1 μl 5 mM CaCl2 and 2 U DNaseI (Ambion, Inc.), followed by incubation for 90 min at 37° C. RNA was quantified by addition of 100 μl RiboGreen RNA Quantitation Reagent (Invitrogen, Inc.; 1:500 dilution in Tris-HCl, pH 8.0, 1 mM EDTA), followed by incubation for 10 min at 25° C., followed by measurement of fluorescence intensity [excitation wavelength=485 nm and emission wavelength=535 nm; QuantaMaster QM1 spectrofluorometer (PTI, Inc.)]. […]

[3] = tested on: Staphylococcus aureus ATCC 12600; assay: MIC, spiral gradient endpoint assay; format: cell-based; conditions: ATCC12600, Mueller-Hinton II agar, 16 h at 37° C., read-out: MIC S. aureus 12600
Excerpt: (§1) Minimum inhibitory concentrations (MICs) for Staphylococcus aureus ATCC 12600, Staphylococcus aureus ATCC 13709 MSSA, Staphylococcus aureus BAA-1707 MRSA (MW2), Staphylococcus aureus BAA-1717 MRSA (USA300), Enterococcus faecalis ATCC 19433, Enterococcus faecium ATCC19434, and Escherichia coli D21f2tolC were quantified using spiral gradient endpoint assays, essentially as described [Wallace, A. and Corkill, J. (1989) Application of the spiral plating method to study antimicrobial action. J. Microbiol. Meths. 10, 303-310; Paton, J., Holt, A., and Bywater, M. (1990) Measurement of MICs of antibacterial agents by spiral gradient endpoint compared with conventional dilution methods. Int. J. Exp. Gin. Chemother. 3, 31-38; Schalkowsky S. (1994) Measures of susceptibility from a spiral gradient of drug concentrations. Adv. Exp. Med. Biol. 349, 107-120]. Assays employed exponential-gradient plates containing 150 mm×4 mm Mueller-Hinton II cation-adjusted agar and 0.4-100 μg/ml of test compound. Plates were prepared using an Autoplate 4000 spiral plater (Spiral Biotech, Inc.). Saturated overnight cultures were swabbed radially onto plates, and plates were incubated for 16 h at 37° C. For each culture, the streak length was measured using a clear plastic template (Spiral Biotech, Inc.), the test-compound concentration at the streak endpoint was calculated using the program SGE (Spiral Biotech, Inc.), and the MIC was defined as the calculated test-compound concentration at the streak endpoint.

[4] = tested on: Staphylococcus aureus BAA-1707 MRSA (MW2); assay: MIC, spiral gradient endpoint assay; format: cell-based; conditions: Mueller-Hinton II agar, 16 h at 37° C., read-out: MIC S. aureus MRSA 1707
Excerpt: as §1

[5] = tested on: Enterococcus faecalis ATCC 19433; assay: MIC, spiral gradient endpoint assay; format: cell-based; conditions: ATCC19433, Mueller-Hinton II agar, 16 h at 37° C., read-out: MIC E. faecalis 19433
Excerpt: as §1

[6] = tested on: Staphylococcus aureus BAA-1717 MRSA (USA300); assay: MIC, spiral gradient endpoint assay; format: cell-based; conditions: Mueller-Hinton II agar, 16 h at 37° C., read-out: MIC S. aureus MRSA 1717
Excerpt: as §1

[7] = tested on: Escherichia coli D21f2tolC; assay: MIC, spiral gradient endpoint assay; format: cell-based; conditions: 16 h, read-out: MIC E. coli D21f2tolC
Excerpt: as §1

[8] = tested on: Staphylococcus aureus ATCC 13709 MSSA; assay: MIC, spiral gradient endpoint assay; format: cell-based; conditions: Mueller-Hinton II agar, 16 h at 37° C., read-out: MIC S. aureus 13709
Excerpt: as §1

[9] = tested on: Enterococcus faecium ATCC19434; assay: MIC, spiral gradient endpoint assay; format: cell-based; conditions: Mueller-Hinton II agar, 16 h at 37° C., read-out: MIC E. faecium 19434
Excerpt: as §1

Chain of E. coli RNA polymerase σ70 holoenzyme (P0A8V2 whole entry, the tested form may be a part): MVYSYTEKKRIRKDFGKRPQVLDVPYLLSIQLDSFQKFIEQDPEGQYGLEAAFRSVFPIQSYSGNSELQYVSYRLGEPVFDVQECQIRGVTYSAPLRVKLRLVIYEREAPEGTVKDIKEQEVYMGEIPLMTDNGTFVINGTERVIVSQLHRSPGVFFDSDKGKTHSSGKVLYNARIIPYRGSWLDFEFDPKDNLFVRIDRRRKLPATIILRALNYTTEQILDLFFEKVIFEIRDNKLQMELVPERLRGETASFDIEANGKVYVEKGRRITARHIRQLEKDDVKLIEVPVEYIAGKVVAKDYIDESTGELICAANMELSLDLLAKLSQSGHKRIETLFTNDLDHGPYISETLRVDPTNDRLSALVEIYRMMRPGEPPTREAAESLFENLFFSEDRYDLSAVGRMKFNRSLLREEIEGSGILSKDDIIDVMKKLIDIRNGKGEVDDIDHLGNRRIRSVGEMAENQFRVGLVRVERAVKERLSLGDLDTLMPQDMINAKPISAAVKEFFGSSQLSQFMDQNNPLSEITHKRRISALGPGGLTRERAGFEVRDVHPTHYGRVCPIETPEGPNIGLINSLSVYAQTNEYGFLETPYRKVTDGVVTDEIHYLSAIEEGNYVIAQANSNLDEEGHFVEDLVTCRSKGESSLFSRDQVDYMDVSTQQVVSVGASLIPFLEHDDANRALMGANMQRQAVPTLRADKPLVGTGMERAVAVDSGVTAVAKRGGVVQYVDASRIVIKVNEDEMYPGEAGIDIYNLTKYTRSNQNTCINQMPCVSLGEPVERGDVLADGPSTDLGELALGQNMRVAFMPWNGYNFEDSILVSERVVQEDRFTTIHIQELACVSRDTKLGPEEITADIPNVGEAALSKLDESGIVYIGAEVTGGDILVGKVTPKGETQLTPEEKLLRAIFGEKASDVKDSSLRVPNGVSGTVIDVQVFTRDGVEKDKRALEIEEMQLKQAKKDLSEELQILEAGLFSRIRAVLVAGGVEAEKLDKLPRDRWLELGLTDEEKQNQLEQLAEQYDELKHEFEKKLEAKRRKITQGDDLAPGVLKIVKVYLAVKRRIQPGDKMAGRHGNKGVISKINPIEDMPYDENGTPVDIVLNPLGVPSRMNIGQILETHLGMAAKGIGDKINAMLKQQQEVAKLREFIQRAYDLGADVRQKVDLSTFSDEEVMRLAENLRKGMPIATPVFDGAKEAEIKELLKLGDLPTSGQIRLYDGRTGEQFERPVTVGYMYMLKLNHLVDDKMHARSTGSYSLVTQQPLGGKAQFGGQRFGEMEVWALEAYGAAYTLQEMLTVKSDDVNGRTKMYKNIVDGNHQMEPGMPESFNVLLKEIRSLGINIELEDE
Chain of E. coli RNA polymerase σ70 holoenzyme (P0A8T7 whole entry, the tested form may be a part): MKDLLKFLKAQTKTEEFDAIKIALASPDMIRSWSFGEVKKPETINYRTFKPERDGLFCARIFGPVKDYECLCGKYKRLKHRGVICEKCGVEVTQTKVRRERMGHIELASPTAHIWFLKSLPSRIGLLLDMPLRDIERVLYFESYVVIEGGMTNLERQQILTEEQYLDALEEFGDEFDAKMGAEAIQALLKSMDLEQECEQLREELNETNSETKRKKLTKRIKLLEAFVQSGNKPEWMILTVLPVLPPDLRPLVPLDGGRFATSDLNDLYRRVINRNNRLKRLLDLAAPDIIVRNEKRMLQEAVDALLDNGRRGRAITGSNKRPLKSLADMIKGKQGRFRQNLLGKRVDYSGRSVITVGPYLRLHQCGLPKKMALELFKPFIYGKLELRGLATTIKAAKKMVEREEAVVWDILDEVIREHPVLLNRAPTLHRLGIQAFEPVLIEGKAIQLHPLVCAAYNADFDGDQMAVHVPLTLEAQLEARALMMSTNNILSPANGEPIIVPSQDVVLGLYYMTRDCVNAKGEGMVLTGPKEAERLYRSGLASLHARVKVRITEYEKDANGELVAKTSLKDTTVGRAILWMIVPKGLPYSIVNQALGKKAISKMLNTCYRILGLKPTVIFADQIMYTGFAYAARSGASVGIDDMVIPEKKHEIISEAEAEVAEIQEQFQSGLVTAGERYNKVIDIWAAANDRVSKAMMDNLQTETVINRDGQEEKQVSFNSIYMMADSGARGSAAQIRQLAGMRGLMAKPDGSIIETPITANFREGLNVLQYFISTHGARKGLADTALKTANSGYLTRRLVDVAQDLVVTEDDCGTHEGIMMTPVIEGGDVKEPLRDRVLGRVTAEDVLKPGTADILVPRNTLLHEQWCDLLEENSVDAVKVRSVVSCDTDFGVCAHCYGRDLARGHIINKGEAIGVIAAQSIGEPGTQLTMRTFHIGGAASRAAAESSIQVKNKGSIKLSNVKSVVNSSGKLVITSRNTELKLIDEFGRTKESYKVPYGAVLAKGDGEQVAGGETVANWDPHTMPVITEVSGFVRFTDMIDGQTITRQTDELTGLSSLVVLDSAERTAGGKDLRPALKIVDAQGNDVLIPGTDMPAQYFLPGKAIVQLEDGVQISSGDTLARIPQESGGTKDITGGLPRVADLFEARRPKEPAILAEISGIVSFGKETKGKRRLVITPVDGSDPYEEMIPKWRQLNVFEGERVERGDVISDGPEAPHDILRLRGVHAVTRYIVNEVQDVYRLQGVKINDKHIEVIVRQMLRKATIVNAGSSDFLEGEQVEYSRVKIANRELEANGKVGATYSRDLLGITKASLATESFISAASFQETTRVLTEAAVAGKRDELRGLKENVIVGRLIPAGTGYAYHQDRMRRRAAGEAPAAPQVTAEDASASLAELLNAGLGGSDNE
Chain of E. coli RNA polymerase σ70 holoenzyme (P0A7Z4 whole entry partner, the tested form may be a part): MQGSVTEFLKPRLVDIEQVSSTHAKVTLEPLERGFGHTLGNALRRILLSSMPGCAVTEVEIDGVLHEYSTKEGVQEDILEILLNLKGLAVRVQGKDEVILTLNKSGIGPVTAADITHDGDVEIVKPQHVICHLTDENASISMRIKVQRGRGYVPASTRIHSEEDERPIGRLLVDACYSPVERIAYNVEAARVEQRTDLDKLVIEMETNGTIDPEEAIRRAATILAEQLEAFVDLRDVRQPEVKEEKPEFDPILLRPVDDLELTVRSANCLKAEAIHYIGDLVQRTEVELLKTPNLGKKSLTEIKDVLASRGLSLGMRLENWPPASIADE
Chain of E. coli RNA polymerase σ70 holoenzyme (P0A800 whole entry partner, the tested form may be a part): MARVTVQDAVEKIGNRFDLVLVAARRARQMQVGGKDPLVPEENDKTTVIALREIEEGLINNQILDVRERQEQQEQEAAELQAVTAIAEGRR
Chain of E. coli RNA polymerase σ70 holoenzyme (P00579 whole entry partner, the tested form may be a part): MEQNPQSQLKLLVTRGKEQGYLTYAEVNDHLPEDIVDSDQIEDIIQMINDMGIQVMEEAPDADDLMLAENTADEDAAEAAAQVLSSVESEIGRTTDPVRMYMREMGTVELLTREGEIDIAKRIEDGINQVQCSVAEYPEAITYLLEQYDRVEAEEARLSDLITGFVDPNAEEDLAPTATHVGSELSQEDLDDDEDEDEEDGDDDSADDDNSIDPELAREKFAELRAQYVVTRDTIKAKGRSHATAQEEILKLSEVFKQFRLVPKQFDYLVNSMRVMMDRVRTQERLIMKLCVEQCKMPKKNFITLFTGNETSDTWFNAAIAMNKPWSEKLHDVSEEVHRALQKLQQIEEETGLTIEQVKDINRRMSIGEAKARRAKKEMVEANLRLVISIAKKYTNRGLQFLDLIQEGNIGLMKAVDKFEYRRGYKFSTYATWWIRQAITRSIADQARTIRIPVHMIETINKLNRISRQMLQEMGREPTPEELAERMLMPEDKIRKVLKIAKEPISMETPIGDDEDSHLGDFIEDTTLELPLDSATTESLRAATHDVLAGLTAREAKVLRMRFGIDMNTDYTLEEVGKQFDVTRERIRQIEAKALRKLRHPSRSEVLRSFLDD

`CCCCCC1=CC(=O)C(C(=O)CCc2ccccc2)C(=O)O1` (stereo not drawn) [Compound 1, 4-hydroxy-6-pentyl-3-(3-phenylpropanoyl)-2-pyrone] was tested, and the MIC [1] was 9 µg/mL (≈ 28.6 µM), the IC50 [2] was 37 µM and the MIC [3] was 6 µg/mL (≈ 19.1 µM). For the same compound, the MIC [4] was 5 µg/mL (≈ 15.9 µM), the MIC [5] was 3 µg/mL (≈ 9.54 µM) and the MIC [6] was 8 µg/mL (≈ 25.4 µM). It also gave an MIC [7] of 3 µg/mL (≈ 9.54 µM), an MIC [8] of 9 µg/mL (≈ 28.6 µM) and an MIC [9] of 7 µg/mL (≈ 22.3 µM).

From patent US8772332B2, “Arylpropionyl-alpha-pyrone antibacterial agents” (priority 2010, dated 2014)
